Experimental data taken from patent publication EP1135374B9, “BENZIMIDAZOLE COMPOUNDS THAT ARE VITRONECTIN RECEPTOR ANTAGONISTS” (SCHERING CORPORATION, priority 1998, dated 2000).

How the values were obtained:
[1] = biological target: T1, αvβ3 receptor (purified from human placenta) (Homo sapiens, UniProt P05106+P06756); assay: competition radioligand binding assay, 125I-echistatin to αvβ3 receptor; conditions: Table 10; αvβ3, inhibition of specific 125I-echistatin binding
T1 construct: αvβ3 receptor (purified from human placenta); from tissue; host or cells: human placenta
Procedure: The following assay procedure, which is a competition radioligand binding assay, was carried out to determine the activity of the foregoing compounds as αvβ3 antagonists. The competitive assay procedure described in Kumar, et. al., "Biochemical Characterization Of The Binding Of Echistatin To Integrin αvβ3 Receptor", Journal Of Pharmacology And Experimental Therapeutics, Vol. 283, No. 2, pp. 843-853 (1997) was employed. Thus, binding of ^125I-echistatin (radiolabeled by the chloramine-T method to a specific activity of 2000 Ci/mmol (Amersham, Chicago, Il.)) to αvβ3 receptor (purified from human placenta), both prepared as described in Kumar, et al., was competed by the compounds prepared in the foregoing examples. Purified αvβ3 receptor was coated onto Microlite-2 plates at a concentration of 50 ng/well. ^125I-echistatin was added to the wells to a final concentration of 0.05 nM in binding buffer (50 µl/well) in the presence of the competing test compound. The competing test compounds were employed at serially diluted concentrations ranging from 1 pM to 100 nM. After a 3 hour incubation at room temperature, the wells were washed, and radioactivity, reflecting binding by ^125 I-echistatin to αvβ3 receptors, was determined with Top Count (Packard). Each data point is an average of values from triplicate wells.
Specific binding of ^125I-echistatin was calculated as the difference between the amount of ^125I-echistatin bound in the absence (total binding) and the amount of ^125I-echistatin bound in the presence of a 200-fold molar excess of unlabeled echistatin (nonspecific binding). The efficacy of the test compounds for inhibiting specific binding of ^125I-echistatin to αvβ3 receptors was determined by plotting a graph of specific binding (y-axis) as a function of test compound concentration (x-axis). The concentration of test compound required to inhibit 50% of the specific binding (IC50) was determined from the plot. The IC50 may be directly converted mathematically to Ki, which is a measure of the receptor binding affinity of the compounds under the defined assay conditions.

purified αllbβ3 receptor = purified αllbβ3 receptor (Homo sapiens, UniProt P05106+P08514); assay: similar competitive binding assay with 125I-echistatin on αllbβ3 receptor, used for the specificity index; conditions: Table 10; specificity index IC50 αllbβ3/ IC50 αvβ3
Procedure: To measure the relative affinity of the test compounds for αvβ3 receptors versus affinity for αllbβ3 receptors, similar competitive assays were carried out using purified αllbβ3 receptor and ^125I-echistatin (iodinated using the lactoperoxidase method). The specificity index, which is a measure of the relative binding affinity for αvβ3, versus αllbβ3, may be determined by dividing the IC50 value for αllbβ3 by the IC50 value for αvβ3.

CC(C)C(=O)N(Cc1ccc(C(=O)NC[C@H](NC(=O)OCc2ccccc2)C(=O)O)cc1)Cc1nc2ccccc2[nH]1 [Example 5-13]
IC50 [1]: 3.1 nM | SPECIFICITY αIIbβ3 / αvβ3 (purified αllbβ3 receptor): 38

O=C(N[C@@H](CNC(=O)c1ccc(CN(Cc2nc3ccccc3[nH]2)C(=O)CCC2CCCC2)cc1)C(=O)O)OCc1ccccc1 [Example 5-14]
IC50 [1]: 5.8 nM | SPECIFICITY αIIbβ3 / αvβ3 (purified αllbβ3 receptor): 117

O=C(N[C@@H](CNC(=O)c1ccc(CN(Cc2nc3ccccc3[nH]2)C(=O)C2CCCCC2)cc1)C(=O)O)OCc1ccccc1 [Example 5-15]
IC50 [1]: 4.3 nM | SPECIFICITY αIIbβ3 / αvβ3 (purified αllbβ3 receptor): 95

O=C(N[C@@H](CNC(=O)c1ccc(CN(Cc2nc3ccccc3[nH]2)C(=O)CCc2ccccc2)cc1)C(=O)O)OCc1ccccc1 [Example 5-16]
IC50 [1]: 4.4 nM | SPECIFICITY αIIbβ3 / αvβ3 (purified αllbβ3 receptor): 899

CCOC(=O)CCC(=O)N(Cc1ccc(C(=O)NC[C@H](NC(=O)OCc2ccccc2)C(=O)O)cc1)Cc1nc2ccccc2[nH]1 [Example 5-17]
IC50 [1]: 4.6 nM | SPECIFICITY αIIbβ3 / αvβ3 (purified αllbβ3 receptor): 76

CC(=O)OC(C(=O)N(Cc1ccc(C(=O)NC[C@H](NC(=O)OCc2ccccc2)C(=O)O)cc1)Cc1nc2ccccc2[nH]1)c1ccccc1 (stereo partly drawn) [Example 5-18]
IC50 [1]: 4.4 nM | SPECIFICITY αIIbβ3 / αvβ3 (purified αllbβ3 receptor): 82

O=C(N[C@@H](CNC(=O)c1ccc(CN(Cc2nc3ccccc3[nH]2)C(=O)COc2ccccc2)cc1)C(=O)O)OCc1ccccc1 [Example 5-19]
IC50 [1]: 8.9 nM | SPECIFICITY αIIbβ3 / αvβ3 (purified αllbβ3 receptor): 34

CCOC(=O)N(Cc1ccc(C(=O)NC[C@H](NC(=O)OCc2ccccc2)C(=O)O)cc1)Cc1nc2ccccc2[nH]1 [Example 5-20]
IC50 [1]: 7.2 nM | SPECIFICITY αIIbβ3 / αvβ3 (purified αllbβ3 receptor): 15

COc1ccc(OC(=O)N(Cc2ccc(C(=O)NC[C@H](NC(=O)OCc3ccccc3)C(=O)O)cc2)Cc2nc3ccccc3[nH]2)cc1 [Example 5-21]
IC50 [1]: 4.4 nM | SPECIFICITY αIIbβ3 / αvβ3 (purified αllbβ3 receptor): 41

O=C(N[C@@H](CNC(=O)c1ccc(CN(Cc2nc3ccccc3[nH]2)C(=O)C2CC2c2ccccc2)cc1)C(=O)O)OCc1ccccc1 (stereo partly drawn) [Example 5-22]
IC50 [1]: 6.4 nM | SPECIFICITY αIIbβ3 / αvβ3 (purified αllbβ3 receptor): 26

CSCC(=O)N(Cc1ccc(C(=O)NC[C@H](NC(=O)OCc2ccccc2)C(=O)O)cc1)Cc1nc2ccccc2[nH]1 [Example 5-23]
IC50 [1]: 5.5 nM | SPECIFICITY αIIbβ3 / αvβ3 (purified αllbβ3 receptor): 22

CN(C)CC(=O)N(Cc1ccc(C(=O)NC[C@H](NC(=O)OCc2ccccc2)C(=O)O)cc1)Cc1nc2ccccc2[nH]1 [Example 5-24]
IC50 [1]: 5.3 nM | SPECIFICITY αIIbβ3 / αvβ3 (purified αllbβ3 receptor): 14

COCCC(=O)N(Cc1ccc(C(=O)NC[C@H](NC(=O)OCc2ccccc2)C(=O)O)cc1)Cc1nc2ccccc2[nH]1 [Example 5-25]
IC50 [1]: 4.5 nM | SPECIFICITY αIIbβ3 / αvβ3 (purified αllbβ3 receptor): 52

CCOCC(=O)N(Cc1ccc(C(=O)NC[C@H](NC(=O)OCc2ccccc2)C(=O)O)cc1)Cc1nc2ccccc2[nH]1 [Example 5-26]
IC50 [1]: 3.5 nM | SPECIFICITY αIIbβ3 / αvβ3 (purified αllbβ3 receptor): 91

O=C(N[C@@H](CNC(=O)c1ccc(CN(Cc2nc3ccccc3[nH]2)C(=O)Nc2ccccc2)cc1)C(=O)O)OCc1ccccc1 [Example 5-27]
IC50 [1]: 1.56 nM | SPECIFICITY αIIbβ3 / αvβ3 (purified αllbβ3 receptor): 481

O=C(N[C@@H](CNC(=O)c1ccc(CN(Cc2nc3ccccc3[nH]2)C(=O)NC2CCCCC2)cc1)C(=O)O)OCc1ccccc1 [Example 5-28]
IC50 [1]: 0.65 nM | SPECIFICITY αIIbβ3 / αvβ3 (purified αllbβ3 receptor): 1136

O=C(N[C@@H](CNC(=O)c1ccc(CN(Cc2nc3ccccc3[nH]2)C(=O)NCc2ccccc2)cc1)C(=O)O)OCc1ccccc1 [Example 5-29]
IC50 [1]: 4.3 nM | SPECIFICITY αIIbβ3 / αvβ3 (purified αllbβ3 receptor): 144

O=C(N[C@@H](CNC(=O)c1ccc(CN(Cc2nc3ccccc3[nH]2)C(=S)NCCc2ccccc2)cc1)C(=O)O)OCc1ccccc1 [Example 5-31]
IC50 [1]: 6 nM | SPECIFICITY αIIbβ3 / αvβ3 (purified αllbβ3 receptor): 80

CCOc1ccc(NC(=O)N(Cc2ccc(C(=O)NC[C@H](NC(=O)OCc3ccccc3)C(=O)O)cc2)Cc2nc3ccccc3[nH]2)cc1 [Example 5-32]
IC50 [1]: 6.5 nM | SPECIFICITY αIIbβ3 / αvβ3 (purified αllbβ3 receptor): 151

CN(Cc1ccc(C(=O)NC[C@H](NC(=O)OCc2ccccc2)C(=O)O)cc1)Cc1nc2ccccc2[nH]1 [Example 5-33]
IC50 [1]: 17 nM | SPECIFICITY αIIbβ3 / αvβ3 (purified αllbβ3 receptor): 128

CC(C)(C)NC(=O)N(Cc1ccc(C(=O)NC[C@H](NC(=O)OCc2ccccc2)C(=O)O)cc1)Cc1nc2ccccc2[nH]1 [Example 5-34]
IC50 [1]: 2.3 nM | SPECIFICITY αIIbβ3 / αvβ3 (purified αllbβ3 receptor): 421

O=C(N[C@@H](CNC(=O)c1ccc(CN(Cc2nc3ccccc3[nH]2)C(=O)Nc2ccc(Cl)cc2)cc1)C(=O)O)OCc1ccccc1 [Example 5-35]
IC50 [1]: 8.1 nM | SPECIFICITY αIIbβ3 / αvβ3 (purified αllbβ3 receptor): 240

CC(NC(=O)N(Cc1ccc(C(=O)NC[C@H](NC(=O)OCc2ccccc2)C(=O)O)cc1)Cc1nc2ccccc2[nH]1)c1cccc2ccccc12 (stereo partly drawn) [Example 5-36]
IC50 [1]: 11.7 nM | SPECIFICITY αIIbβ3 / αvβ3 (purified αllbβ3 receptor): 129

O=C(N[C@@H](CNC(=O)c1ccc(CN(Cc2nc3ccccc3[nH]2)C(=O)Nc2cccc3ccccc23)cc1)C(=O)O)OCc1ccccc1 [Example 5-37]
IC50 [1]: 5.3 nM | SPECIFICITY αIIbβ3 / αvβ3 (purified αllbβ3 receptor): 203

O=C(N[C@@H](CNC(=O)c1ccc(CN(Cc2nc3ccccc3[nH]2)C(=O)Nc2ccc(-c3ccccc3)cc2)cc1)C(=O)O)OCc1ccccc1 [Example 5-38]
IC50 [1]: 13.6 nM | SPECIFICITY αIIbβ3 / αvβ3 (purified αllbβ3 receptor): 49

CCCNC(=O)N(Cc1ccc(C(=O)NC[C@H](NC(=O)OCc2ccccc2)C(=O)O)cc1)Cc1nc2ccccc2[nH]1 [Example 5-39]
IC50 [1]: 3.1 nM | SPECIFICITY αIIbβ3 / αvβ3 (purified αllbβ3 receptor): 223

O=C(N[C@@H](CNC(=O)c1ccc(CN(Cc2nc3ccccc3[nH]2)C(=O)NC23CC4CC(CC(C4)C2)C3)cc1)C(=O)O)OCc1ccccc1 [Example 5-40]
IC50 [1]: 5.7 nM | SPECIFICITY αIIbβ3 / αvβ3 (purified αllbβ3 receptor): 288

O=C(N[C@@H](CNC(=O)c1ccc(CN(Cc2nc3ccccc3[nH]2)C(=O)N2CCOCC2)cc1)C(=O)O)OCc1ccccc1 [Example 5-42]
IC50 [1]: 1.8 nM | SPECIFICITY αIIbβ3 / αvβ3 (purified αllbβ3 receptor): 39

CCNC(=O)N(Cc1ccc(C(=O)NC[C@H](NC(=O)OCc2ccccc2)C(=O)O)cc1)Cc1nc2ccccc2[nH]1 [Example 5-43]
IC50 [1]: 2.2 nM | SPECIFICITY αIIbβ3 / αvβ3 (purified αllbβ3 receptor): 585

O=C(N[C@@H](CNC(=O)c1ccc(CN(Cc2nc3ccccc3[nH]2)C(=O)NS(=O)(=O)c2ccc(Cl)cc2)cc1)C(=O)O)OCc1ccccc1 [Example 5-44]
IC50 [1]: 19.6 nM | SPECIFICITY αIIbβ3 / αvβ3 (purified αllbβ3 receptor): 66.3

CCOC(=O)CNC(=O)N(Cc1ccc(C(=O)NC[C@H](NC(=O)OCc2ccccc2)C(=O)O)cc1)Cc1nc2ccccc2[nH]1 [Example 5-45, N^3-[4-[(benzimidazol-2-yl)methyl][[(ethoxycarbonylmethyl)amino]-carbonyl]aminomethylbenzoyl]-N^2-Cbz-1-2,3-diaminopropionic acid]
IC50 [1]: 2.2 nM | SPECIFICITY αIIbβ3 / αvβ3 (purified αllbβ3 receptor): 1333

COc1ccc(NC(=S)N(Cc2ccc(C(=O)NC[C@H](NC(=O)OCc3ccccc3)C(=O)O)cc2)Cc2nc3ccccc3[nH]2)cc1 [Example 5-46]
IC50 [1]: 2.7 nM | SPECIFICITY αIIbβ3 / αvβ3 (purified αllbβ3 receptor): 1065

CCOC(=O)c1ccc(NC(=O)N(Cc2ccc(C(=O)NC[C@H](NC(=O)OCc3ccccc3)C(=O)O)cc2)Cc2nc3ccccc3[nH]2)cc1 [Example 5-47]
IC50 [1]: 2.2 nM | SPECIFICITY αIIbβ3 / αvβ3 (purified αllbβ3 receptor): 1252

CCOC(=O)[C@H](CCSC)NC(=O)N(Cc1ccc(C(=O)NC[C@H](NC(=O)OCc2ccccc2)C(=O)O)cc1)Cc1nc2ccccc2[nH]1 [Example 5-48]
IC50 [1]: 1 nM | SPECIFICITY αIIbβ3 / αvβ3 (purified αllbβ3 receptor): 2028

O=C(N[C@@H](CNC(=O)c1ccc(CN(Cc2nc3ccccc3[nH]2)C(=O)Nc2ccc(F)cc2)cc1)C(=O)O)OCc1ccccc1 [Example 5-49]
IC50 [1]: 4.2 nM | SPECIFICITY αIIbβ3 / αvβ3 (purified αllbβ3 receptor): 504

CCOC(=O)[C@H](C)NC(=O)N(Cc1ccc(C(=O)NC[C@H](NC(=O)OCc2ccccc2)C(=O)O)cc1)Cc1nc2ccccc2[nH]1 [Example 5-50]
IC50 [1]: 3 nM | SPECIFICITY αIIbβ3 / αvβ3 (purified αllbβ3 receptor): 805

CCOC(=O)[C@@H](NC(=O)N(Cc1ccc(C(=O)NC[C@H](NC(=O)OCc2ccccc2)C(=O)O)cc1)Cc1nc2ccccc2[nH]1)C(C)C [Example 5-51]
IC50 [1]: 1.1 nM | SPECIFICITY αIIbβ3 / αvβ3 (purified αllbβ3 receptor): 1210

CCOC(=O)[C@H](Cc1ccccc1)NC(=O)N(Cc1ccc(C(=O)NC[C@H](NC(=O)OCc2ccccc2)C(=O)O)cc1)Cc1nc2ccccc2[nH]1 [Example 5-52]
IC50 [1]: 4 nM | SPECIFICITY αIIbβ3 / αvβ3 (purified αllbβ3 receptor): 448

CCOC(=O)[C@H](CC(C)C)NC(=O)N(Cc1ccc(C(=O)NC[C@H](NC(=O)OCc2ccccc2)C(=O)O)cc1)Cc1nc2ccccc2[nH]1 [Example 5-53]
IC50 [1]: 3.8 nM | SPECIFICITY αIIbβ3 / αvβ3 (purified αllbβ3 receptor): 483
